Assay type in all cases: cell-based
Test [1] has as its system Ba/F3 cells expressing EGFR-wt. The test is described as follows: Growth inhibition (GI50) of Ba/F3 cells expressing EGFR-wt, Celltiter glo. To be noted: Mus musculus, BaF3, 72 h. Summed up: (§1)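 Ba/F3 cells carrying each EGFR variant were plated at 100,000 cells/ml; after 4 h, compound was added as 10-point 4-fold dilutions (top stock 2 mM, 0.5% DMSO). After 72 h at 37 °C, viability was read by CellTiter-Glo; GI50 is the molar concentration (μM) giving 50% growth inhibition.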
In general terms: In ATP-based viability assays light output follows the ATP content of the culture.

Test [2] relates to Ba/F3 cells expressing del19/T790M/C797S (EGFR-DTC). The test is described as follows: Growth inhibition (GI50) of Ba/F3 cells expressing del19/T790M/C797S (EGFR-DTC), Celltiter glo. To be noted: Mus musculus, BaF3, 72 h. In outline:
as §1

For test [3], the system named is Ba/F3 cells expressing L858R/T790M/C797S (EGFR-LTC). The test is described as follows: Growth inhibition (GI50) of Ba/F3 cells expressing L858R/T790M/C797S (EGFR-LTC), Celltiter glo. The following applies: Mus musculus, BaF3, 72 h. Summed up:
as §1

The test system of test [4] is Ba/F3 cells expressing del19/T790M (EGFR-DT). The test is described as follows: Growth inhibition (GI50) of Ba/F3 cells expressing del19/T790M (EGFR-DT), Celltiter glo. To be noted: Mus musculus, BaF3, 72 h. Summed up:
as §1

Test [5] has as its system Ba/F3 cells expressing L858R/T790M (EGFR-LT). The test is described as follows: Growth inhibition (GI50) of Ba/F3 cells expressing L858R/T790M (EGFR-LT), Celltiter glo. The following applies: Mus musculus, BaF3, 72 h. In outline: as §1
Another test relates to parental Ba/F3 cell line. The test is described as follows: Growth inhibition (GI50) of the parental Ba/F3 cell line (not introduced with EGFR variants), Celltiter glo. To be noted: Mus musculus, BaF3, 72 h, parental Ba/F3 cells. Summed up: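 Parental Ba/F3 cells (100,000 cells/ml) were treated with 10-point, 4-fold compound dilutions (0.5% DMSO; top stock 2 mM) for 72 h at 37 °C, 5% CO2. Viability was read by CellTiter-Glo; GI50 is the concentration (μM) giving 50% growth inhibition.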

In general, GI50 refers to the concentration giving 50% growth inhibition. For the compound `COc1cc(N2CCC(N3CCN(C)CC3)CC2)c(C)cc1Nc1ncc(Br)c(Nc2cc(Cl)ccc2N(C)S(C)(=O)=O)n1` [Example 155, N-(2-((5-bromo-2-((2-methoxy-5-methyl-4-(4-(4-methylpiperazin-1-yl)piperidin-1-yl)phenyl)amino)pyrimidin-4-yl)amino)-4-chlorophenyl)-N-methylmethanesulfonamide], the GI50 lay within 25 to 100 nM in test [1]; 1 to 25 nM in test [2]; 1 to 25 nM in test [3]; 1 to 25 nM in test [4]; 25 to 100 nM in test [5]; 100 to 500 nM with parental Ba/F3 cell line.

`COc1cc(N2CCC(N3CCN(C)CC3)CC2)c(Cl)cc1Nc1ncc(Br)c(Nc2cc(Cl)ccc2N(C)S(C)(=O)=O)n1` [Example 156, N-(2-((5-bromo-2-((5-chloro-2-methoxy-4-(4-(4-methylpiperazin-1-yl)piperidin-1-yl)phenyl)amino)pyrimidin-4-yl)amino)-4-chlorophenyl)-N-methylmethanesulfonamide]: the GI50 in test [1] was in the range of 1 to 25 nM; in test [2], 1 to 25 nM; in test [3] it was 1 to 25 nM; in test [4], 1 to 25 nM; in test [5], 1 to 25 nM; with parental Ba/F3 cell line it was 100 to 500 nM.

Take `Cc1cc(Nc2ncc(Cl)c(Nc3cc(Cl)ccc3NS(C)(=O)=O)n2)c(Cl)cc1N1CCC(N2CCC(N(C)C)C2)CC1` (stereo not drawn) [Example 157, N-(4-chloro-2-((5-chloro-2-((2-chloro-4-(4-(3-(dimethylamino)pyrrolidin-1-yl)piperidin-1-yl)-5-methylphenyl)amino)pyrimidin-4-yl)amino)phenyl)methanesulfonamide]: the GI50 lay in the range of 100 to 500 nM in test [1]; 100 to 500 nM in test [2]; 25 to 100 nM in test [3]; 25 to 100 nM in test [4]; 25 to 100 nM in test [5]; 500 to 2000 nM with parental Ba/F3 cell line.

Consider `Cc1cc(Nc2ncc(Cl)c(Nc3cc(Cl)ccc3NS(C)(=O)=O)n2)c(Cl)cc1N1CCC(N2CCN(C)CC2)CC1` [Example 158, N-(4-chloro-2-((5-chloro-2-((2-chloro-5-methyl-4-(4-(4-methylpiperazin-1-yl)piperidin-1-yl)phenyl)amino)pyrimidin-4-yl)amino)phenyl)methanesulfonamide], for which the GI50 in test [1] lay in the range of 500 to 2000 nM; in test [2], 1 to 25 nM; in test [3] it was 1 to 25 nM; in test [4], 25 to 100 nM; in test [5], 25 to 100 nM; in the test on parental Ba/F3 cell line, 2000 to 10000 nM.

Regarding `COc1cc(N2CCC(N3CCN(C)CC3)CC2)c(C)cc1Nc1ncc(Cl)c(Nc2cc(C(C)C)ccc2NS(C)(=O)=O)n1` [Example 160, N-(2-((5-chloro-2-((2-methoxy-5-methyl-4-(4-(4-methylpiperazin-1-yl)piperidin-1-yl)phenyl)amino)pyrimidin-4-yl)amino)-4-isopropylphenyl)methanesulfonamide], the GI50 is 500 to 2000 nM in test [1]; 25 to 100 nM in test [2]; 100 to 500 nM in test [3]; 100 to 500 nM in test [4]; 100 to 500 nM in test [5]; 2000 to 10000 nM in the test on parental Ba/F3 cell line.

For `COc1cc(N2CCC(N3CCN(C)CC3)CC2)c(Cl)cc1Nc1ncc(Cl)c(Nc2cc(C(C)C)ccc2NS(C)(=O)=O)n1` [Example 161, N-(2-((5-chloro-2-((5-chloro-2-methoxy-4-(4-(4-methylpiperazin-1-yl)piperidin-1-yl)phenyl)amino)pyrimidin-4-yl)amino)-4-isopropylphenyl)methanesulfonamide], the GI50 in test [1] was 2000 to 10000 nM; in test [2] it was 100 to 500 nM; in test [3], 500 to 2000 nM; in test [4], 100 to 500 nM; in test [5], 500 to 2000 nM; in the test with parental Ba/F3 cell line it was 2000 to 10000 nM.

Consider `Cc1cc(Nc2ncc(Cl)c(Nc3cc(Cl)ccc3NS(C)(=O)=O)n2)c(Cl)cc1N1CCC(N2CCCN(C)CC2)CC1` [Example 162, N-(4-chloro-2-((5-chloro-2-((2-chloro-5-methyl-4-(4-(4-methyl-1,4-diazepan-1-yl)piperidin-1-yl)phenyl)amino)pyrimidin-4-yl)amino)phenyl)methanesulfonamide], for which the GI50 in test [1] lay within 500 to 2000 nM; in test [2], 100 to 500 nM; in test [3], 2000 to 10000 nM; in test [4] it was 2000 to 10000 nM; in test [5] it was 2000 to 10000 nM; in the test on parental Ba/F3 cell line, 2000 to 10000 nM.

Regarding `COc1cc(N2CCC(N3CCCN(C)CC3)CC2)c(Cl)cc1Nc1ncc(Cl)c(Nc2cc(Cl)ccc2NS(C)(=O)=O)n1` [Example 163, N-(4-chloro-2-((5-chloro-2-((5-chloro-2-methoxy-4-(4-(4-methyl-1,4-diazepan-1-yl)piperidin-1-yl)phenyl)amino)pyrimidin-4-yl)amino)phenyl)methanesulfonamide], the GI50 was 2000 to 10000 nM in test [1]; 100 to 500 nM in test [2]; 2000 to 10000 nM in test [3]; 2000 to 10000 nM in test [4]; 2000 to 10000 nM in test [5]; greater than 10000 nM with parental Ba/F3 cell line.

For the compound `COc1cc(N2CCC(N3CCN(C)CC3)CC2)c(C)cc1Nc1nnc(Cl)c(Nc2ccc(F)cc2NS(C)(=O)=O)n1` [Example 164, N-(2-((6-chloro-3-((2-methoxy-5-methyl-4-(4-(4-methylpiperazin-1-yl)piperidin-1-yl)phenyl)amino)-1,2,4-triazin-5-yl)amino)-5-fluorophenyl)methanesulfonamide], the GI50 in test [1] is 2000 to 10000 nM; in test [2], 100 to 500 nM; in test [3], 2000 to 10000 nM; in test [4], 2000 to 10000 nM; in test [5], 2000 to 10000 nM; in the test on parental Ba/F3 cell line, greater than 10000 nM.

As for `COc1cc(N2CCC(N3CCCN(C)CC3)CC2)c(C)cc1Nc1ncc(Cl)c(Nc2cc3c(cc2NS(C)(=O)=O)CCO3)n1` [Example 165, N-(6-((5-chloro-2-((2-methoxy-5-methyl-4-(4-(4-methyl-1,4-diazepan-1-yl)piperidin-1-yl)phenyl)amino)pyrimidin-4-yl)amino)-2,3-dihydrobenzofuran-5-yl)methanesulfonamide], the GI50 in test [1] was 500 to 2000 nM; in test [2] it was 25 to 100 nM; in test [3] it was 25 to 100 nM; in test [4], 25 to 100 nM; in test [5] it was 25 to 100 nM; in the test with parental Ba/F3 cell line, 2000 to 10000 nM.

Regarding `CN(C)CCCn1cc(Nc2ncc(Cl)c(Nc3cc(Cl)ccc3NS(C)(=O)=O)n2)cn1` [Example 167, N-(4-chloro-2-((5-chloro-2-((1-(3-(dimethylamino)propyl)-1H-pyrazol-4-yl)amino)pyrimidine-4-yl)amino)phenyl)methanesulfonamide], the 50% growth inhibitory concentration (GI50) in test [1] fell in the range of 500 to 2000 nM; in test [2] it was 100 to 500 nM; in test [3] it was 2000 to 10000 nM; in test [4], 2000 to 10000 nM; in test [5], 2000 to 10000 nM; in the test with parental Ba/F3 cell line, 2000 to 10000 nM.

In the case of `COc1cc(N2CCC(N3CCN(C)CC3)CC2)c(Cl)cc1Nc1ncc(Cl)c(Nc2cc3c(cc2NS(C)(=O)=O)CCO3)n1` [Example 168, N-(6-((5-chloro-2-((5-chloro-2-methoxy-4-(4-(4-methylpiperazin-1-yl)piperidin-1-yl)phenyl)amino)pyrimidin-4-yl)amino)-2,3-dihydrobenzofuran-5-yl)methanesulfonamide], the GI50 fell in the range of 25 to 100 nM in test [1]; 1 to 25 nM in test [2]; 1 to 25 nM in test [3]; 1 to 25 nM in test [4]; 1 to 25 nM in test [5]; 2000 to 10000 nM in the test with parental Ba/F3 cell line.

Take `COc1cc(N2CCC(N3CCN(C)CC3)CC2)c(C)cc1Nc1ncc(Br)c(Nc2cc3c(cc2NS(C)(=O)=O)CCO3)n1` [Example 169, N-(6-((5-bromo-2-((2-methoxy-5-methyl-4-(4-(4-methylpiperazin-1-yl)piperidin-1-yl)phenyl)amino)pyrimidin-4-yl)amino)-2,3-dihydrobenzofuran-5-yl)methanesulfonamide]: the concentration for 50% growth inhibition (GI50) lay within 100 to 500 nM in test [1]; 1 to 25 nM in test [2]; 1 to 25 nM in test [3]; 1 to 25 nM in test [4]; 1 to 25 nM in test [5]; 500 to 2000 nM in the test on parental Ba/F3 cell line.

As for `COc1cc(N2CCC(N3CCN(C)CC3)CC2)c(Cl)cc1Nc1ncc(Cl)c(Nc2cc(Cl)ccc2N(C)S(C)(=O)=O)n1` [Example 170, N-(4-chloro-2-((5-chloro-2-((5-chloro-2-methoxy-4-(4-(4-methylpiperazin-1-yl)piperidin-1-yl)phenyl)amino)pyrimidin-4-yl)amino)phenyl)-N-methylmethanesulfonamide], the GI50 in test [1] lay within 25 to 100 nM; in test [2] it was 1 to 25 nM; in test [3], 1 to 25 nM; in test [4], 1 to 25 nM; in test [5], 1 to 25 nM; with parental Ba/F3 cell line, 100 to 500 nM.

For the compound `Cc1cc(Nc2ncc(Cl)c(Nc3cc4c(cc3NS(C)(=O)=O)CCO4)n2)c(Cl)cc1N1CCC(N2CCCN(C)CC2)CC1` [Example 172, N-(6-((5-chloro-2-((2-chloro-5-methyl-4-(4-(4-methyl-1,4-diazepan-1-yl)piperidin-1-yl)phenyl)amino)pyrimidin-4-yl)amino)-2,3-dihydrobenzofuran-5-yl)methanesulfonamide], the GI50 in test [1] lay in the range of 100 to 500 nM; in test [2], 1 to 25 nM; in test [3], 1 to 25 nM; in test [4], 25 to 100 nM; in test [5], 1 to 25 nM; with parental Ba/F3 cell line it was 100 to 500 nM.

These data come from patent US20240228458A1, “PYRIMIDINE DERIVATIVE HAVING PROTEIN KINASE INHIBITORY ACTIVITY, AND THERAPEUTIC PHARMACEUTICAL COMPOSITION COMPRISING SAME” (THERAPEX CO., LTD., priority 2021, published 2024).
